From PMC10518257 (Nature Cancer, 2023)
Where “and” joins values, the source holds several entries; their conditions need not be identical. Identical values can stand only once.

What was measured:
HBECp53-EV cells = test: Growth inhibition (alamarBlue, 96 h); assay type: cell-based, human; details: for raw viability signal (Source Data Fig. 3b-c): HBEC-EV, replicate sets
LUAD-0057AS1 PDX = test: PDX efficacy study; details: 50 mg/kg QD
ECLC5 xenografts = test: Subcutaneous xenograft efficacy study; details: 100 mg/kg QD
[1] = end of study, individual tumors

Question: What does the source list for `COc1cc2c(Nc3ccc(Br)cc3F)ncnc2cc1OCC1CCN(C)CC1` [Vandetanib]?
Answer: raw viability signal (Source Data Fig. 3b-c) (HBECp53-EV cells; 0.01 nM): 25097.6 and 25887.6 and 17676.4; raw viability signal (Source Data Fig. 3b-c) (HBECp53-EV cells; 0.1 nM): 26759 and 26118.3 and 17425.7; raw viability signal (Source Data Fig. 3b-c) (HBECp53-EV cells; 1 nM): 23471.2 and 28489.7 and 18981.5; raw viability signal (Source Data Fig. 3b-c) (HBECp53-EV cells; 10 nM): 23607.2 and 26549.6 and 18321.2; raw viability signal (Source Data Fig. 3b-c) (HBECp53-EV cells; 100 nM): 25750 and 25003; raw viability signal (Source Data Fig. 3b-c) (HBECp53-EV cells; 1000 nM): 22139.5 and 31238.9 and 18759.8; raw viability signal (Source Data Fig. 3b-c) (HBECp53-EV cells; 10000 nM): 1428.02 and 2282.52 and 1103.83; IC50 (HBECp53-EV cells; Homo sapiens, read-out: IC50 for Inhibition of Growth (95% CI), HBECp53-EV, alamarBlue, 96 h): 3.58 µM; Area Under Curve of tumor growth, Mean (LUAD-0057AS1 PDX): -2007; Tumor volume (LUAD-0057AS1 PDX; day 0, individual animals): 143.69 mm3 (3×) and 139.24 mm3 (2×) and 136.86 mm3 and 132.84 mm3 and 124.41 mm3; Tumor volume (LUAD-0057AS1 PDX; day 3, individual animals): 79.85 mm3 and 78.99 mm3 (2×) and 80.35 mm3 and 89.72 mm3 and 82.12 mm3 and 83.53 mm3 (2×); Tumor volume (LUAD-0057AS1 PDX; day 7, individual animals): 65.45 mm3 (5×) and 66.76 mm3 (2×) and 69.46 mm3; Tumor volume (LUAD-0057AS1 PDX; day 10, individual animals): 52.07 mm3 (2×) and 58.99 mm3 and 57.83 mm3 (3×) and 56.67 mm3 and 49.83 mm3; Tumor volume (LUAD-0057AS1 PDX; day 14, individual animals): 52.07 mm3 (2×) and 55.52 mm3 and 57.83 mm3 (2×) and 56.67 mm3 and 49.83 mm3; Tumor volume (LUAD-0057AS1 PDX; day 19, individual animals): 0 mm3; Tumor volume (LUAD-0057AS1 PDX; day 23, individual animals): 0 mm3; Change in Tumor Volume (LUAD-0057AS1 PDX; [1]): -100%; Area Under Curve of tumor growth, Mean (ECLC5 xenografts): -1273; Tumor volume (ECLC5 xenografts; day 0, individual animals): 83.83 mm3 (2×) and 88.56 mm3 and 87.03 mm3; Tumor volume (ECLC5 xenografts; day 4, individual animals): 55.4 mm3 (2×) and 45.5 mm3 and 53.01 mm3 and 50.68 mm3; Tumor volume (ECLC5 xenografts; day 7, individual animals): 42.25 mm3 and 37.7 mm3 and 44.53 mm3 and 41.37 mm3 and 39.37 mm3; Tumor volume (ECLC5 xenografts; day 11, individual animals): 38.54 mm3 and 37.7 mm3 and 44.53 mm3 and 33.69 mm3 and 31.89 mm3; Tumor volume (ECLC5 xenografts; day 14, individual animals): 36.02 mm3 and 36.86 mm3 and 35.19 mm3 and 28.86 mm3 and 23.59 mm3; Tumor volume (ECLC5 xenografts; day 19, individual animals): 34.35 mm3 and 31 mm3 and 35.19 mm3 and 28.86 mm3 and 18.85 mm3; Tumor volume (ECLC5 xenografts; day 22, individual animals): 0 mm3 (4×) and 29.39 mm3; Tumor volume (ECLC5 xenografts; day 25, individual animals): 0 mm3; Change in Tumor Volume (ECLC5 xenografts; [1]): -100%
